Reference: patent US11903912B2, “Composition for preventing and treating breast cancer including selenopsammaplin A as active ingredients” (Seoul National University R & DB Foundation, priority 2019, dated 2024)

Assays:
[1] = test system: EMT markers in MDA-MB-231 cells; assay: Gene expression of EMT markers, real-time PCR; assay type: cell-based, human; conditions: MDA-MB-231, real-time PCR
Procedure: To confirm the EMT-related gene expression levels of the human breast cancer cell line MDA-MB-231, an experiment was performed as follows. To examine the EMT marker expression levels of the human breast cancer cell line MDA-MB-231, breast cancer cells were spread at a concentration of 1×10^6 cells/well on an RPMI medium containing 10% FBS in a 100 mm culture dish, cultured at 37° C. for 24 hours under a 5% CO2 condition, and then washed twice with phosphate-buffered saline (PBS). Attached cells were washed twice with PBS, the TRI reagent (TRIzol (#15596-026, Invitrogen, Grand Island, N.Y.)) was used to disrupt the cells, and then CHCl3 was added thereto to extract RNA, followed by precipitation using isopropyl alcohol. The RNA precipitate was washed with 70% ethanol, dried in air, and then […] using nuclease-free water (AM9937, Ambion, Austin, Tex.), followed by heating at 55° C. for 10 minutes and heat treatment at 70° C. for 5 minutes, so that RNA was present in a single strand state. Total RNA was quantified using NanoDrop (ND-1000, Dae Myung Science, Seoul, Korea) and diluted to 1 μg/μL, and then cDNA was produced using Avian Myeloblastosis Virus (AMV) Reverse Transcriptase (M5108, Promega, Madison, Wis.) and an oligo(dT)15 primer (C110B, Promega, Madison, Wis.). A target gene was amplified in a MiniOpticon™ Real-time PCR Detection system (CFB-3120, Bio-Rad, Hercules, Calif.) using iQTM SYBR Green Supermix (#170-8880, Bio-Rad, Hercules, Calif.) and target gene-specific primers. Real-time PCR conditions were as follows: a PCR cycle of denaturation at 95° C. for 20 seconds; denaturation at 95° C. for 20 seconds; annealing at 56° C. for 20 seconds; and elongation at 72° C. for 30 seconds, and the PCR cycle was repeated 40 times, followed by the final process at 95° C. for 1 minute and at 55° C. for 1 minute. Ct values were determined by the method according to Livak K J et al ((1996) Method 25:402-408) using MJ Opticon Monitor software (Opticon Monitor 3.1.32, Bio-Rad, Hercules, Calif.), and calibrated with the Ct value of β-actin of the sample, and the mRNA expression of EMT markers in the breast cancer cell line is illustrated in FIGS. 7A to 7D.

[2] = target: T1, DOT1L (Homo sapiens, UniProt Q8TEK3); assay: Inhibition of DOT1L methylation (H3K79) by western blotting; assay type: cell-based; conditions: breast cancer cell line, FIG. 3
T1 construct: based on the finding that DOT1L was overexpressed in the breast cancer cell line; endogenous in cells
T1 sequence (Q8TEK3 whole entry): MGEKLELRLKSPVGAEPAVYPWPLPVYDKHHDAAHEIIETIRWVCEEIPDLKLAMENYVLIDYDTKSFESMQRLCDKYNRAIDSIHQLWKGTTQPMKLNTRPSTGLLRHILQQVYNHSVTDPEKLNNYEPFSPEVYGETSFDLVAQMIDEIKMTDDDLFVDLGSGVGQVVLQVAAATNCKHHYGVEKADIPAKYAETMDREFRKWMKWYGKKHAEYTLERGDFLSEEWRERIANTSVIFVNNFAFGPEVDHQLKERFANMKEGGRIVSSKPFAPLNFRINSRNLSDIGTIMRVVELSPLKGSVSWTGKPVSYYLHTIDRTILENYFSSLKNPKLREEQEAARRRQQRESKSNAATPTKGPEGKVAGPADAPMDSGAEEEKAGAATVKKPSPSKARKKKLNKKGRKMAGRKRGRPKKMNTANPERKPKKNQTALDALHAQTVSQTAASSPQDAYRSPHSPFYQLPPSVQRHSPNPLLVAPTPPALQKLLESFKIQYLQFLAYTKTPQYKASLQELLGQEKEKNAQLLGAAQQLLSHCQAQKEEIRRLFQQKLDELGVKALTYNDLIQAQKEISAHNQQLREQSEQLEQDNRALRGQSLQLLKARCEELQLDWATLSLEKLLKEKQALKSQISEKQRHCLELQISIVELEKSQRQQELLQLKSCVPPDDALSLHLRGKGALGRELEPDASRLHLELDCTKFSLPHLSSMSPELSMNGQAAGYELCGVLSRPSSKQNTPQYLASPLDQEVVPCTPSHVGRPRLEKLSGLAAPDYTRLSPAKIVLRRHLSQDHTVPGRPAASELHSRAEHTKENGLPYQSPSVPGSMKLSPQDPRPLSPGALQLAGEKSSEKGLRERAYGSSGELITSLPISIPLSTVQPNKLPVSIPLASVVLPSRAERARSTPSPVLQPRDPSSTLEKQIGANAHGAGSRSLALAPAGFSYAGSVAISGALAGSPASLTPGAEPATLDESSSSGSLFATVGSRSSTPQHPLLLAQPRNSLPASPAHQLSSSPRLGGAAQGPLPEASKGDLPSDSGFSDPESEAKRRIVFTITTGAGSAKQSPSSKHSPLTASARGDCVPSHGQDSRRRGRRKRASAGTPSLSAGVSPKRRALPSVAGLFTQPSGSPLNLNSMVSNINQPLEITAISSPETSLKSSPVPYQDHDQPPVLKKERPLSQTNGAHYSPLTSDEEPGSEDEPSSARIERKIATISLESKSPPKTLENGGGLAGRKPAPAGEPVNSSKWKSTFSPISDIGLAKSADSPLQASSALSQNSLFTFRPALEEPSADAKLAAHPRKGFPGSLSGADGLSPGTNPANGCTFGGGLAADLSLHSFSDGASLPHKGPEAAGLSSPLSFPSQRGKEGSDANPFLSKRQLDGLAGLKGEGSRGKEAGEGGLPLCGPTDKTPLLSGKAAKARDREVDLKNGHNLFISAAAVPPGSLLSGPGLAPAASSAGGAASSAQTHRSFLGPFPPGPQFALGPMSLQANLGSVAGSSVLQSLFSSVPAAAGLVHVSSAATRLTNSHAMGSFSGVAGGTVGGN
Text: As confirmed in Example 1, based on the finding that DOT1L was overexpressed in the breast cancer cell line, the effects of the derivatives of the present invention on the methylation of the histone 3 lysine 79 (H3K79) residue, which is an in-vivo target of DOT1L, were examined by western blotting.

[3] = test system: MDA-MB-231 cells; assay: Cancer cell invasion (Transwell) test; assay type: cell-based, human; conditions: MDA-MB-231, Transwell, 50-400 nM, 24 hours
Procedure: The triple-negative breast cancer cell line MDA-MB-231 was spread at a concentration of 1×10^6 cells/well on a DMEM medium containing 10% FBS in a Transwell plate, cultured at 37° C. for 24 hours under a 5% CO2 condition, and then washed once with phosphate-buffered saline (PBS). Subsequently, the cells were treated with 50-400 nM compound 2 and 400 nM psammaplin A, and then cultured for 24 hours. After washing once with PBS, a membrane was attached to a slide glass, the degree of cell invasion was photographed using a microscope, and the results thereof are illustrated in FIG. 6A. The degree of invasion compared to a control using ImageJ software is illustrated in FIG. 6B.

[4] = test system: H3K79me2, E-cadherin, vimentin in breast tumors; assay: Cancer metastasis markers in tumor tissues, western blot; assay type: in vivo; conditions: tumors extracted from treated mice
Procedure: To verify that compound 2 is involved in the regulation of key factors such as H3K79me2, E-cadherin, and vimentin in vivo, the effect of compound 2 on the key factors in tumor tissues was analyzed using the following method.
The triple-negative breast cancer cell line MDA-MB-231 was spread at a concentration of 2×10^6 cells/well on a DMEM medium containing 10% FBS in a 6-well plate, cultured at 37° C. for 24 hours under a 5% CO2 condition, and then washed twice with phosphate-buffered saline (PBS). Attached cells were recovered and washed twice with PBS, and then boiling 2× sample loading buffer (250 mM Tris-HCl (pH 6.8), 4% SDS, 10% glycerol, 0.006% bromophenol blue, 2% β-mercaptoethanol, 50 mM sodium fluoride, and 5 mM sodium orthovanadate) was added thereto to disrupt the cells and the cells were left at 100° C. for 10 minutes. After cooling, the cells were stored at […] and […] at 37° C. immediately before use in protein quantification and electrophoresis. 10 μg of proteins were electrophoresed at 100 V for 2 hours using a 12% SDS-polyacrylamide gel (#456-1036, Bio-Rad, Hercules, Calif.). The separated proteins were transferred to a PVDF membrane (ISEQ15150, Millipore, Bedford, Mass.) at 100 V for 1 hour, and a blocking buffer (5% non-fat dry milk in TBS containing 0.1% Tween-20 (TBST)) was injected thereinto to culture the proteins at room temperature for 1 hour. After washing three times with TBST for 5 minutes, the corresponding single antibody was diluted with 5% non-fat dry milk in TBST and allowed to react with the membrane at 4° C. for 18 hours. The membrane [ISEQ 1S150, Millipore, Bedford, Mass.] was washed three times with TBST for 10 minutes, and then horseradish peroxidase (HRP)-conjugated secondary antibodies were diluted with 2.5% non-fat dry milk in TBST at a ratio of 1:2,000 and allowed to react with the membrane at room temperature for 2 hours. […] These were quantified using ImageJ software and are illustrated in FIG. 10B.

O=C(NCC[Se][Se]CCNC(=O)/C(Cc1ccccc1)=N/O)/C(Cc1ccccc1)=N/O [Compound 2, (2E,2′E)-N,N′-(diselenediylbis(ethane-2,1-diyl))bis(2-(hydroxyimino)-3-phenylpropanamide)]
mRNA expression of E-cadherin (CDH1) [1]: increased
mRNA expression of N-cadherin (CDH2) [1]: suppressed
mRNA expression of ZEB1 [1]: suppressed
mRNA expression of vimentin (VIM) [1]: suppressed
inhibitory effect on H3K79 methylation [2]: excellent
invasion of breast cancer cells [3]: effectively suppressed
E-cadherin in breast tumors [4]: increased in a concentration-dependent manner
histone methylation (H3K79me2) in breast tumors [4]: reduced in a concentration-dependent manner
vimentin in breast tumors [4]: reduced in a concentration-dependent manner
